Key:
JW23.3 cells = type: cell-based, murine; conditions: 72 hours
JH-2-002 cells = type: cell-based, human; conditions: 72 hours
[1] = test system: JW23.3, JH-2-002, and MPNST-724 cells; assay: IncuCyte proliferation assay, range stated over three MPNST cell lines; type: cell-based; conditions: 72 h, read-out: IC50 for inhibition of cell confluence, range over cell lines
MPNST-724 cells = type: cell-based, human; conditions: 3 days

Compound	effect on percent cell confluence / proliferation (JW23.3 cells)	effect on percent cell confluence / proliferation (JH-2-002 cells)	IC50 [1] [nM]	effect on proliferation (MPNST-724 cells)
CCS(=O)(=O)N1CC(CC#N)(n2cc(-c3ncnc4[nH]ccc34)cn2)C1 [baricitinib]	decreased cell proliferation at higher doses	decreased cell proliferation at higher doses	–	–
O=C(NOC[C@H](O)CO)c1ccc(F)c(F)c1Nc1ccc(I)cc1F [mirdametinib]	dose-dependently reduced	dose-dependently reduced	220 to 1220	dose-dependently reduced

Reference: publication PMC10102849 (Clinical cancer research : an official journal of the …, 2023)
